Experimental data reported in patent publication US6218431A, “Substituted biphenyls” (Bayer Corporation, priority 1997, dated 2001).

What follows are compounds tested against T1, glucagon receptor (Homo sapiens, UniProt P47871) (assay: glucagon receptor binding assay (125I-glucagon, CHO-HGR membranes)). Conditions: 20 μM; reported where 20 μM did not reduce glucagon binding by 50%.
T1 construct: expressed in transfected cells; host or cells: Chinese Hamster Ovary cells (CHO-HGR), membranes
T1 sequence (P47871 26-477): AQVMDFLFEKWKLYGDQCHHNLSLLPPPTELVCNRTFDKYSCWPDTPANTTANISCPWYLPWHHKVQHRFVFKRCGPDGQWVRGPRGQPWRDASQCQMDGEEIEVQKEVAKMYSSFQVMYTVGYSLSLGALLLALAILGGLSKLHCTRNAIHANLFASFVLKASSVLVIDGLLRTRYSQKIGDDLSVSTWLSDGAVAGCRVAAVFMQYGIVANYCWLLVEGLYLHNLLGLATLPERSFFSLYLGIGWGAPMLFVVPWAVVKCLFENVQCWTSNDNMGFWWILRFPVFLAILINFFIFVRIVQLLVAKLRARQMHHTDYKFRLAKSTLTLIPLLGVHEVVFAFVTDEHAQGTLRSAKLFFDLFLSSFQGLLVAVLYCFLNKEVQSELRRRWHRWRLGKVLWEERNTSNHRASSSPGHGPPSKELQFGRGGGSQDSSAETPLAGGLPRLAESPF
In short: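 Membranes from CHO cells expressing glucagon receptor (10 ug protein) in Tris pH 7.4 buffer with EDTA, BSA and bacitracin, incubated with test compound and 125I-glucagon (9 fmol) 60 min at room temperature. Bound radioactivity counted after filtration; nonspecific binding defined with 1 μM native glucagon; 0.5% DMSO.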
`CCCC=Cc1c(C(C)C)nc(C(C)C)c(CO)c1-c1ccc(CC)cc1` [Example 131, 2,6-Diisopropyl-3-hydroxymethyl-4-(4-ethylphenyl)-5-(pent-1-enyl)-pyridine] showed an inhibition at 20 µM of 37.3%.
`CCCCCc1c(C(C)C)nc(C(C)C)c(CO)c1-c1ccc(CC)cc1` [Example 132, 2,6-Diisopropyl-3-hydroxymethyl-4-(4-ethylphenyl)-5-pentylpyridine] gave an inhibition at 20 µM of 42.5%.
Work on `CCCC=Cc1c(C(C)C)nc(C(C)C)c(CO)c1-c1ccc(C(C)C)cc1` [Example 133, 2,6-Diisopropyl-3-hydroxymethyl-4-(4-isopropylphenyl)-5-(pent-1-enyl)pyridine] yielded an inhibition at 20 µM of 35.5%.
`CCCCCc1c(C(C)C)nc(C(C)C)c(CO)c1-c1ccc(C(C)C)cc1` [Example 134, 2,6-Diisopropyl-3-hydroxymethyl-4-(4-isopropylphenyl)-5-pentylpyridine] gave an inhibition at 20 µM of 34.4%.
`CCCC=Cc1c(C(C)C)nc(C(C)C)c(CO)c1-c1ccc(-c2ccccc2)cc1` [Example 135, 2,6-Diisopropyl-3-hydroxymethyl-4-[4-(phenyl)phenyl]-5-(pent-1-enyl)pyridine] showed an inhibition at 20 µM of 4.64%.
For `CCCCCc1c(C(C)C)nc(C(C)C)c(CO)c1-c1cccc(C)c1` [Example 140, 2,6-Diisopropyl-3-hydroxymethyl-4-(3-methylphenyl)-5-pentylpyridine], the inhibition at 20 µM was 46.3%.
Compound `CCCC=Cc1c(C(C)C)nc(C(C)C)c(CO)c1-c1ccccc1C` [Example 141, 2,6-Diisopropyl-3-hydroxymethyl-4-(2-methylphenyl)-5-(pent-1-enyl)-pyridine] has an inhibition at 20 µM of 34%.
In the case of `CCCCCc1c(C(C)C)nc(C(C)C)c(CO)c1-c1ccccc1C` [Example 142, 2,6-Diisopropyl-3-hydroxymethyl-4-(2-methylphenyl)-5pentylpyridine], the inhibition at 20 µM is reported as 33.1%.
Compound `CCCC=Cc1c(C(C)C)nc(C(C)C)c(CO)c1-c1cccc(Cl)c1` [Example 145, 2,6-Diisopropyl-3-hydroxymethyl-4-(3-chlorophenyl)-5-(pent-1-enyl)-pyridine] has an inhibition at 20 µM of 41.4%.
Compound `CCCCCc1c(C(C)C)nc(C(C)C)c(CO)c1-c1cccc(Cl)c1` [Example 146, 2,6-Diisopropyl-3-hydroxymethyl-4-(3-chlorophenyl)-5-pentylpyridine] has an inhibition at 20 µM of 48.8%.
Compound `CCCCCc1c(C(C)C)nc(C(C)C)c(CO)c1-c1ccc(Cl)cc1Cl` [Example 148, 2,6-Diisopropyl-3-hydroxymethyl-4-(2,4-dichlorophenyl)-5-pentylpyridine] has an inhibition at 20 µM of 7.78%.
With `CCCC=Cc1c(C(C)C)nc(C(C)C)c(CO)c1-c1ccc(Cl)c(Cl)c1` [Example 149, 2,6-Diisopropyl3-hydroxymethyl-4-(3,4-dichlorophenyl)-5-(pent-1-enyl)pyridine] the inhibition at 20 µM was 39%.
With `CCCC=Cc1c(C(C)C)nc(C(C)C)c(CO)c1-c1cccc(OCc2ccccc2)c1` [Example 152, 2,6-Diisopropyl-3-hydroxymethyl-4-(3-benzyloxyphenyl)-5-(pent-1-enyl)pyridine] the inhibition at 20 µM was 25.4%.
`C#Cc1ccccc1-c1c(C=CCCC)c(C(C)C)nc(C(C)C)c1CO` [Example 156, 2,6-Diisopropyl-3-hydroxymethyl-4-(2-ethynylphenyl)-5-(pent-1-enyl)-pyridine] gave an inhibition at 20 µM of 26.1%.
In the case of `CCCC=Cc1c(C(C)C)nc(C(C)C)c(CO)c1-c1ccc(OCc2ccccc2)cc1` [Example 160, 2,6-Diisopropyl-3-hydroxymethyl-4-(4-benzyloxyphenyl)-5-(pent-1-enyl)pyridine], the inhibition at 20 µM is reported as 21%.
`CCCCCc1c(C(C)C)nc(C(C)C)c(CO)c1-c1ccc(O)cc1` [Example 161, 2,6-Diisopropyl-3-hydroxymethyl-4-(4-hydroxyphenyl)-5-pentylpyridine] gave an inhibition at 20 µM of 24%.
`CCCC=Cc1c(C(C)C)nc(C(C)C)c(CO)c1-c1ccccc1OCc1ccccc1` [Example 162, 2,6-Diisopropyl-3-hydroxymethyl-4-(2-benzyloxyphenyl)-5-(pent-1-enyl)pyridine] was tested, and the inhibition at 20 µM was 13.9%.
With `CCCCCc1c(C(C)C)nc(C(C)C)c(CO)c1-c1ccc(OC)cc1` [Example 169, 2,6-Diisopropyl-3-hydroxymethyl-4-(4-methoxyphenyl)-5-pentyl-pyridine] the inhibition at 20 µM was 37.1%.
`CCCC=Cc1c(C(C)C)nc(C(C)C)c(CO)c1-c1cccc(OC)c1` [Example 170, 2,6-Diisopropyl-3-hydroxymethyl-4-(3-methoxyphenyl)-5-(pent-1-enyl)pyridine] showed an inhibition at 20 µM of 45.5%.
In the case of `CCCCCc1c(C(C)C)nc(C(C)C)c(CO)c1-c1cccc(OC)c1` [Example 171, 2,6-Diisopropyl-3-hydroxymethyl-4-(3-methoxyphenyl)-5-pentylpyridine], the “% Inhibition (20 μM)” value is reported as 48.37%.
`CCCCCc1c(C(C)C)nc(C(C)C)c(CO)c1-c1ccccc1OC` [Example 173, 2,6-Diisopropyl-3-hydroxymethyl-4-(2-methoxyphenyl)-5-pentylpyridine] was tested, and the inhibition at 20 µM was 27.4%.
For `CCCC=Cc1c(C(C)C)nc(C(C)C)c(CO)c1-c1ccc(SC)cc1` [Example 174, 2,6-Diisopropyl-3hydroxymethyl-4-[4-(methylthio)phenyl]-5-(pent-1-enyl)pyridine], the inhibition at 20 µM was 33.4%.
`CCCC=Cc1c(C(C)C)nc(C(C)C)c(CO)c1-c1ccc([S+](C)[O-])cc1` (stereo not shown) [Example 175, 2,6-Diisopropyl-3-hydroxymethyl-4-[4-(methylsulfinyl)phenyl]-5-(pent-1-enyl)pyridine] showed an inhibition at 20 µM of 40.9%.
In the case of `CCCC=Cc1c(C(C)C)nc(C(C)C)c(CO)c1-c1ccc(S(C)(=O)=O)cc1` [Example 176, 2,6-Diisopropyl-3-hydroxymethyl-4-[4-(methylsulfonyl)phenyl]-5-(pent-1-enyl)pyridine], the inhibition at 20 µM is reported as 13.8%.
For `CCCCCc1c(C(C)C)nc(C(C)C)c(CO)c1-c1ccc(F)c(C(O)c2ccc(F)cc2)c1` (stereo not drawn) [Example 181, 2,6-Diisopropyl-3-hydroxymethyl-4-[4-fluoro-3-(α-hydroxy-4-fluorobenzyl)phenyl]-5-pentylpyridine], the inhibition at 20 µM was 46%.
Work on `CCCCCc1c(C(C)C)nc(C(C)C)c(CO)c1-c1ccc(F)c(C(C)O)c1` (stereo not shown) [Example 182, 2,6-Diisopropyl-3-hydroxymethyl-4-[4-fluoro-3-(1-hydroxyethyl)phenyl]-5-pentylpyridine] yielded an inhibition at 20 µM of 49.1%.

Same assay, conditions: 125I-glucagon; 60 min at room temperature; read-out: IC50
Compound `CCCC=Cc1c(C(C)C)nc(C(C)C)c(CO)c1-c1ccc(C)cc1` [Example 129, 2,6-Diisopropyl-3-hydroxymethyl-4-(4-methylphenyl)-5-(Pent-1-enyl)-pyridine] has an IC50 of 1500 nM.
In the case of `CCCC=Cc1c(C(C)C)nc(C(C)C)c(CO)c1-c1ccccc1F` [Example 137, 2,6-Diisopropyl-3-hydroxymethyl-4-(2-fluorophenyl)-5-(pent-1-enyl)-pyridine], the IC50 is reported as 11000 nM.
In the case of `CCCCCc1c(C(C)C)nc(C(C)C)c(CO)c1-c1ccccc1F` [Example 138, 2,6-Diisopropyl-3-hydroxymethyl-4-(2-fluorophenyl)-5-pentylpyridine], the IC50 is reported as 9000 nM.
Compound `CCCC=Cc1c(C(C)C)nc(C(C)C)c(CO)c1-c1cccc(C)c1` [Example 139, 2,6-Diisopropyl-3-hydroxymethyl-4-(3-methylphenyl)-5-(pent-1-enyl)-pyridine] has an IC50 of 17000 nM.
With `CCCC=Cc1c(C(C)C)nc(C(C)C)c(CO)c1-c1ccc(Cl)cc1` [Example 143, 2,6-Diisopropyl-3-hydroxymethyl-4-(4-chlorophenyl)-5-(pent-1-enyl)pyridine] the IC50 was 900 nM.
In the case of `CCCCCc1c(C(C)C)nc(C(C)C)c(CO)c1-c1ccc(Cl)cc1` [Example 144, 2,6-Diisopropyl-3-hydroxymethyl-4-(4-chlorophenyl)-5-pentylpyridine], the IC50 is reported as 800 nM.
`CCCC=Cc1c(C(C)C)nc(C(C)C)c(CO)c1-c1ccc(F)cc1F` [Example 150, 2,6-Diisopropyl-3-hydroxymethyl-4-(2,4-difluorophenyl)-5-(pent-1-enyl)pyridine] gave an IC50 of 4500 nM.
With `CCCCCc1c(C(C)C)nc(C(C)C)c(CO)c1-c1cccc(O)c1` [Example 153, 2,6-Diisopropyl-3-hydroxymethyl-4-(3-hydroxyphenyl)-5-pentylpyridine] the IC50 was 6000 nM.
With `CCCC=Cc1c(C(C)C)nc(C(C)C)c(CO)c1-c1ccc(F)c(F)c1` [Example 158, 2,6-diisopropyl-3-hydroxymethyl-4-(3,4-difluorophenyl)-5-(pent-1-enyl)pyridine] the IC50 was 1800 nM.
Compound `CCCCCc1c(C(C)C)nc(C(C)C)c(CO)c1-c1ccc(F)c(F)c1` [Example 159, 2,6-Diisopropyl-3-hydroxymethyl-4-(3,4-difluorophenyl)-5-pentyl-pyridine] has an IC50 of 1100 nM.
Work on `CCCCCc1c(C(C)C)nc(C(C)C)c(CO)c1-c1ccccc1O` [Example 163, 2,6-Diisopropyl-3-hydroxymethyl-4-(2-hydroxyphenyl)-5-pentylpyridine] yielded an IC50 of 500 nM.
Compound `CCCCCc1c(C(C)C)nc(C(C)C)c(CO)c1-c1cccnc1` [Example 186, 2,6-Diisopropyl-3-hydroxymethyl-4-(pyridin-3-yl)-5-pentylpyridine] has an IC50 of 20000 nM.
Compound `CCCC=Cc1c(C(C)C)nc(C(C)C)c(CO)c1-c1ccoc1` [Example 187, 2,6-Diisopropyl-3-hydroxymethyl-4-(3-furyl)-5-(pent-1-enyl)pyridine] has an IC50 of 12000 nM.
`CCCCCc1c(C(C)C)nc(C(C)C)c(CO)c1-c1ccoc1` [Example 188, 2,6-Diisopropyl-3-hydroxymethyl-4-(3-furyl)-5-pentylpyridine] was tested, and the IC50 was 10500 nM.
`CCCCCc1c(C(C)C)cc(C(C)C)c(CO)c1-c1ccc(F)cc1` [Example 190, 3,5-Diisopropyl-2-hydroxymethyl-6-pentyl-4'-fluoro-1,1'-biphenyl] was tested, and the IC50 was 300 nM.
Compound `CCCCCc1c(C(C)C)cc(C(C)C)c(C(C)O)c1-c1ccc(F)cc1` (stereo not shown) [Example 191, 3,5-Diisopropyl-2-(1-hydroxyethyl)-6-pentyl-4'-fluoro-1,1'-biphenyl] has an IC50 of 130 nM.
Compound `CCCC=Cc1c(C(C)C)cc(C(C)C)c(CO)c1-c1ccc(F)cc1` [Example 194, 3,5-Diisopropyl-2-hydroxymethyl-6-(pent-1-enyl)-4'-fluoro-1,1'-biphenyl] has an IC50 of 1000 nM.
